Measured values reported in patent publication US20250204515A1, “Heparanase Inhibition for Graft Protection” (University of Pittsburgh - Of the Commonwealth System of …, priority 2022, published 2025).
“Also recorded” adds a separate entry of the source.

What was measured:
rat lungs = assay: Rat EVLP for 4 hours with HPSE inhibitors in the perfusate: physiology, endothelial barrier, edema; details: heparin 1000-U/hour or SF4 1 μM in perfusate
Procedure: In the heparin group, 1000-U of heparin were initially added to the EVLP perfusate, then 1000-U of heparin were administered every hour during EVLP. […] Two control conditions were included in the experimental protocol: 1) sham controls (Sham) were lungs not placed on EVLP and 2) untreated controls (Control) were lungs placed on EVLP without HPSE inhibitor treatment. EVLP physiology, endothelial integrity, inflammation and glycocalyx preservation for EVLP lungs and post-transplant lung grafts were investigated across all treatment regimens.
Ex vivo lung perfusion in rats: EVLP was performed using a commercially-available rodent EVLP system (IL-2 Isolated Perfused Rat or Guinea Pig Lung System; Harvard apparatus, Holliston, MA). Acellular Steen solution was used for EVLP perfusate and medicated with methylprednisolone (Solu-Medrol®; Pfizer, Inc., New York, NY) and cephalosporin (Cefazolin; WG critical care LLC, Paramus, NJ) equally in all experimental groups. […] Pulmonary artery pressure, peak airway pressure, and airway flow were monitored continuously, and dynamic lung compliance (Cdyn) and pulmonary vascular resistance (PVR) were analyzed.
Evaluation of endothellal barrier Integrity After 4 hours of EVLP, 60 mg of Evans blue dye (EBD, Millipore-Sigma, Burlington, MA) was administered into the perfusate to assess vascular endothelial permeability. After 30 minutes of perfusion, the lung vascular bed was rinsed with 20 ml of phosphate-buffered saline (PBS), and slices of lungs were incubated in formamide (Millipore Sigma) overnight at 60° C. Absorbance of the extractant was measured at 620 nm, and EBD was normalized to dry-tissue weight.
Wet-to-Dry (W/D) weight ratio: Lung tissues collected 2 hours after transplant were immediately weighed then placed in a 60° C. oven to dry for 72 hours. Tissues were weighed again after drying to determine the wet-to-dry lung weight ratio.

[1] = test system: glycosaminoglycans (GAGs), syndecan-1; assay: Glycocalyx shedding in rat lungs during EVLP (GAGs, syndecan-1 ELISA, immunofluorescence); details: after 4 hours EVLP; SF4 vs heparin-treated, heparin vs controls
Procedure: Syndecan-1 ELISA: Syndecan-1 concentrations in EVLP perfusate were quantitated using ELISA (Immunotag™ Rat Syndecan-1 ELISA, G-Biosciences, Geno Technology, Inc., St. Louis, MO). ELISA was performed according to the manufacturer's instructions using perfusate samples acquired after 4 hours of EVLP.
Determination of glycosaminoglycans (GAGS): The concentration of GAGs in rat EVLP perfusate at 4 hours was quantitated using 1,9-dimethylmethylene blue (DMMB, Millipore Sigma). The DMMB solution (pH˜3.0) was prepared by dissolving 16 mg/I DMMB in distilled H2O containing 3.04 g/I glycine, 1.6 g/l NaCl and 95 ml 0.1 M acetic acid. Briefly, 1 ml DMMB solution was mixed with 100 μl EVLP perfusate then incubated for 18 h at room temperature. The tubes were then centrifuged at 14,000 rpm for 20 min at 4° C. Supernatants were carefully decanted, 100 μl dissolvent buffer (4 M guanidine hydrochloride, 50 mM sodium acetate, 10% propan-1-ol, pH 6.8) was added to each pellet, and the tubes were incubated at 40° C. and vortexed until GAG-DMMB pellets were completely dissolved. GAG content in each sample was measured spectrophotometrically at 656 nm.
Tissue staining and histopathological analysis: Formalin-fixed, paraffin-embedded lung tissues collected 2 hours after transplantation were sectioned to 4 μm thickness and stained with hematoxylin and eosin. In parallel, sections of tissue collected after 4 hours of EVLP were stained for immunofluorescence imaging using primary antibodies for syndecan-1 (DL-101) (#sc-12765, Santa Cruz) and caveolin-1 (#3238, Cell Signaling Technology, Danvers, MA) and with Hoechst 33342 dye (Thermo Scientific). Donkey Cy3-conjugated anti-mouse IgG (#AP192C, MilliporeSigma, Burlington, MA) and Cy5-conjugated goat anti-rabbit IgG (#A10523, Thermo Scientific) secondary antibodies were used to detect primary antibodies. Stained slides were scanned with a whole-slide image scanner (Axio Scan.Z1; Carl Zeiss AB, Oberkochen, Germany) and analyzed with digital image processing software (ZEN lite blue edition; Carl Zeiss).

With heparin the “pulmonary vascular resistance (PVR) during EVLP” value (rat lungs; 4-hour EVLP) was “increased”, the “dynamic lung compliance (Cdyn) during EVLP” value (rat lungs; 4-hour EVLP, vs control) was “neither heparin nor SF4 altered Cdyn” and the “Evans blue dye (EBD) accumulation in lung tissue” value (rat lungs; after 4-hours EVLP) was “significantly more EBD had accumulated”. The “wet-to-dry (W/D) ratio” value (rat lungs; after 4 hours of EVLP) was “further augmented” and the “syndecan-1 concentration in EVLP perfusate” value [1] was “markedly increased; also recorded: significantly higher”.
